US20260240847A1, “COMPOUNDS WITH ANTI-TUMOR ACTIVITY AGAINST CANCER CELLS BEARING TYROSINE KINASE INHIBITOR RESISTANT EGFR MUTATIONS” (BOARD OF REGENTS, THE UNIVERSITY OF TEXAS SYSTEM, priority 2019, published 2026)
pIC50: −log10 of the molar value.

Tests used:
[1] = target: WT EGFR (Homo sapiens, UniProt P00533); conditions: read-out: IC50 values; Ba/F3 cells expressing WT EGFR (+10 ng/ml EGF), 72 hours
Protocol: (§1) Cell viability was determined by the Cell Titer Glo assay.
(§2) Briefly, stable Ba/F3 cell lines were generated by retroviral transduction of Ba/F3 cell line for 12 hours. […] Three days after transduction, 2 μg/ml puromycin (Invitrogen) was added to the RPMI media. Cell lines were then grown in the absence of IL-3 for two weeks and cell viability was assessed every three days using the Cell Titer Glo assay (Progema).
(§3) Briefly, 2000-3000 cells per well were plated in 384-well plates (Greiner Bio-One) in technical triplicate. Cells were treated with seven different concentrations of tyrosine kinase inhibitors or vehicle alone at a final volume of 40 μL per well. After 3 days, 11 μL of Cell Titer Glo was added to each well. Plates were shaken for 15 minutes, and bioluminescence was determined using a FLUOstar OPTIMA multi-mode micro-plate reader (BMG LABTECH). Bioluminescence values were normalized to DMSO treated cells, and normalized values were plotted in GraphPad Prism using non-linear regression fit to normalized data with a variable slope.

[2] = target: EGFR T790M (Homo sapiens, UniProt P00533, T790M); experiment: Ba/F3 cell viability, Cell Titer Glo; conditions: read-out: IC50 Values; Ba/F3 cells expressing EGFR T790M, 72 hours
Protocol: as §1, §2, §3

[3] = target: EGFR L718Q T790M (Homo sapiens, UniProt P00533, L718Q/T790M); experiment: Ba/F3 cell viability, Cell Titer Glo; conditions: read-out: IC50 Values; Ba/F3 cells expressing EGFR L718Q T790M, 72 hours
Protocol: as §1, §2, §3

[4] = target: EGFR L858R T790M L792H (Homo sapiens, UniProt P00533, L792H/L858R/T790M); experiment: Ba/F3 cell viability, Cell Titer Glo; conditions: read-out: IC50 Values; Ba/F3 cells expressing EGFR L858R T790M L792H, 72 hours
Chain of EGFR L858R T790M L792H (P00533 25-1210 T790M/L792H/L858R): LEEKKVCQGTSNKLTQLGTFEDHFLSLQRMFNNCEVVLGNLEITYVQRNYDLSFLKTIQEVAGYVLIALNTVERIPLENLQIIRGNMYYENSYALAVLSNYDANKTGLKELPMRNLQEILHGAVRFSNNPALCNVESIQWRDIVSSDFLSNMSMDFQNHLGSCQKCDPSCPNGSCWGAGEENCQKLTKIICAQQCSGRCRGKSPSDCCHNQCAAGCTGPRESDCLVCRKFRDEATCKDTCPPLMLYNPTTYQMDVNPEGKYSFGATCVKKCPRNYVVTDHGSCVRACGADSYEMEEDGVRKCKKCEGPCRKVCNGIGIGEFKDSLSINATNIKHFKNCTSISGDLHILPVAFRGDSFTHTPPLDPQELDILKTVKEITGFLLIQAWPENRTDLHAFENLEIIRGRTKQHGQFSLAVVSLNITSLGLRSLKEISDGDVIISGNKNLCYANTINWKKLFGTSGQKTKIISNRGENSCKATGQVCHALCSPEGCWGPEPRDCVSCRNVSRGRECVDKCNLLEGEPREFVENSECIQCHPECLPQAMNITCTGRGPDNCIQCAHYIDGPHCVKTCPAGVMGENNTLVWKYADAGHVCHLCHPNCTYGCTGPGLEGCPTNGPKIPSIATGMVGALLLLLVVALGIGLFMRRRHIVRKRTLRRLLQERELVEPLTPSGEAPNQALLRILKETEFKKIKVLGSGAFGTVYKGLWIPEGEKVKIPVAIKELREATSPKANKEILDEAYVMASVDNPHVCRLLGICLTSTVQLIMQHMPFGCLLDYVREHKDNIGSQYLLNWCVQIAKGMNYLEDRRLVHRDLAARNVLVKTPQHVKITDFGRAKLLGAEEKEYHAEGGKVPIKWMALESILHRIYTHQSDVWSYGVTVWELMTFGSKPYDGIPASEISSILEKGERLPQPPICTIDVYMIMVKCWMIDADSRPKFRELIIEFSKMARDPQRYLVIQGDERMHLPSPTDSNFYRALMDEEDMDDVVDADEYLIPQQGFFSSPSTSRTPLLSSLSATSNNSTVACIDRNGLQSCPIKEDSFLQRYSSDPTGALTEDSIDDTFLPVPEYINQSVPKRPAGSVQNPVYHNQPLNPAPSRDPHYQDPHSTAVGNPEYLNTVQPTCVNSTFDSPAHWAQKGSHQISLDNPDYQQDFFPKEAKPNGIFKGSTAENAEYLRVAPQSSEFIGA
Protocol: as §1, §2, §3

[5] = target: EGFR L858R/T790M/L718Q (Homo sapiens, UniProt P00533, L718Q/L858R/T790M); experiment: Ba/F3 cell viability, Cell Titer Glo; conditions: read-out: IC50 Values; Ba/F3 cells expressing EGFR L858R/T790M/L718Q, 72 hours
Protocol: as §1, §2, §3

[6] = target: EGFR Ex19delT790M L718V (Homo sapiens, UniProt P00533, DEL746-750/L718V/T790M); experiment: Ba/F3 cell viability, Cell Titer Glo; conditions: read-out: IC50 Values; Ba/F3 cells expressing EGFR Ex19delT790M L718V, 72 hours
Protocol: as §1, §2, §3

[7] = target: EGFR L858R T790M/C797S (Homo sapiens, UniProt P00533, C797S/L858R/T790M); experiment: Ba/F3 cell viability, Cell Titer Glo; conditions: read-out: IC50 Values; Ba/F3 cells expressing EGFR L858R T790M/C797S, 72 hours
Protocol: as §1, §2, §3

[8] = target: EGFR G724S T790M (Homo sapiens, UniProt P00533, G724S/T790M); experiment: Ba/F3 cell viability, Cell Titer Glo; conditions: read-out: IC50 Values; Ba/F3 cells expressing EGFR G724S T790M, 72 hours
Protocol: as §1, §2, §3

[9] = target: EGFR S768I/T790M (Homo sapiens, UniProt P00533, S768I/T790M); experiment: Ba/F3 cell viability, Cell Titer Glo; conditions: read-out: IC50 Values; Ba/F3 cells expressing EGFR S768I/T790M, 72 hours
Protocol: as §1, §3

[10] = target: EGFR Ex19delT790M (Homo sapiens, UniProt P00533, DEL746-750/T790M); experiment: Ba/F3 cell viability, Cell Titer Glo; conditions: read-out: IC50 Values; Ba/F3 cells expressing EGFR Ex19delT790M, 72 hours
Chain of EGFR Ex19delT790M (P00533 with tags, fused parts or gaps DEL746-750/T790M): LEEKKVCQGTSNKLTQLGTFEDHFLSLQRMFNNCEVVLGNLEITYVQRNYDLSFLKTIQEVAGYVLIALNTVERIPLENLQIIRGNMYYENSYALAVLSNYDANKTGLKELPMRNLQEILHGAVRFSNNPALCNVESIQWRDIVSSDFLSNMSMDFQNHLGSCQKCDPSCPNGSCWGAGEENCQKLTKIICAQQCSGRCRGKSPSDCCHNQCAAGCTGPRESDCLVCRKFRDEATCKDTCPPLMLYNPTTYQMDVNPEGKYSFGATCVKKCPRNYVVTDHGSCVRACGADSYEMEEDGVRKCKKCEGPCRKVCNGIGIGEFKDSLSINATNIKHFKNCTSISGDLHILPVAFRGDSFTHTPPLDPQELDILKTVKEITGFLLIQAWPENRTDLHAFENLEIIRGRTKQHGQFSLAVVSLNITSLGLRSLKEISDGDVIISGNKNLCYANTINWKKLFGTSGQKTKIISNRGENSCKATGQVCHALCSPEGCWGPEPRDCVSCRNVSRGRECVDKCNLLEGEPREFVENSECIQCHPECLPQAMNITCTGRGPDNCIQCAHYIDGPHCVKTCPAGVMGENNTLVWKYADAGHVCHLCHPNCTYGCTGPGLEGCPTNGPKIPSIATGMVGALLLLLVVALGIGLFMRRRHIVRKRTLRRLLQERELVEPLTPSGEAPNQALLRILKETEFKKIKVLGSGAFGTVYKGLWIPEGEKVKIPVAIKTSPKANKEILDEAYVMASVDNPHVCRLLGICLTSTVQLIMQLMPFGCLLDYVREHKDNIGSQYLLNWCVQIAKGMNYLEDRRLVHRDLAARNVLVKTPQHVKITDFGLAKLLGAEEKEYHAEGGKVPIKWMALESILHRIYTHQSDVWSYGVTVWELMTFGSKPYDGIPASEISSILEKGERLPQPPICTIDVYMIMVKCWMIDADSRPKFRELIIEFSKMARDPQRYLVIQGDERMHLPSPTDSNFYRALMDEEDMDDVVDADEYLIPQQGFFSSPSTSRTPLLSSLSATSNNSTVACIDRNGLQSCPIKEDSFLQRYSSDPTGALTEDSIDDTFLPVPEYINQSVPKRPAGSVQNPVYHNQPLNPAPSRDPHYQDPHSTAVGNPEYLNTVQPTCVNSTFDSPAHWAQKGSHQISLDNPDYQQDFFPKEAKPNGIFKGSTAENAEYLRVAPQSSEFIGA
Protocol: as §1, §2, §3

[11] = target: EGFR Ex19del T790M C797S (Homo sapiens, UniProt P00533, C797S/DEL746-750/T790M); experiment: Ba/F3 cell viability, Cell Titer Glo; conditions: read-out: IC50 Values; Ba/F3 cells expressing EGFR Ex19del T790M C797S, 72 hours
Protocol: as §1, §2, §3

[12] = target: EGFR Ex19del/T790M/L792H (Homo sapiens, UniProt P00533, DEL746-750/L792H/T790M); experiment: Ba/F3 cell viability, Cell Titer Glo; conditions: read-out: IC50 Values; Ba/F3 cells expressing EGFR Ex19del/T790M/L792H, 72 hours
Protocol: as §1, §2, §3

[13] = target: EGFR Ex19del/T790M/G724S (Homo sapiens, UniProt P00533, DEL746-750/G724S/T790M); experiment: Ba/F3 cell viability, Cell Titer Glo; conditions: read-out: IC50 Values; Ba/F3 cells expressing EGFR Ex19del/T790M/G724S, 72 hours
Protocol: as §1, §3

[14] = target: EGFR L858R T790M V843I (Homo sapiens, UniProt P00533, L858R/T790M/V843I); experiment: Ba/F3 cell viability, Cell Titer Glo; conditions: read-out: IC50 Values; Ba/F3 cells expressing EGFR L858R T790M V843I, 72 hours
Protocol: as §1, §2, §3

[15] = target: EGFR L858R/T790M (Homo sapiens, UniProt P00533, L858R/T790M); experiment: Ba/F3 cell viability, Cell Titer Glo; conditions: read-out: IC50 Values; Ba/F3 cells expressing EGFR L858R/T790M, 72 hours
Chain of EGFR L858R/T790M (P00533 25-1210 T790M/L858R): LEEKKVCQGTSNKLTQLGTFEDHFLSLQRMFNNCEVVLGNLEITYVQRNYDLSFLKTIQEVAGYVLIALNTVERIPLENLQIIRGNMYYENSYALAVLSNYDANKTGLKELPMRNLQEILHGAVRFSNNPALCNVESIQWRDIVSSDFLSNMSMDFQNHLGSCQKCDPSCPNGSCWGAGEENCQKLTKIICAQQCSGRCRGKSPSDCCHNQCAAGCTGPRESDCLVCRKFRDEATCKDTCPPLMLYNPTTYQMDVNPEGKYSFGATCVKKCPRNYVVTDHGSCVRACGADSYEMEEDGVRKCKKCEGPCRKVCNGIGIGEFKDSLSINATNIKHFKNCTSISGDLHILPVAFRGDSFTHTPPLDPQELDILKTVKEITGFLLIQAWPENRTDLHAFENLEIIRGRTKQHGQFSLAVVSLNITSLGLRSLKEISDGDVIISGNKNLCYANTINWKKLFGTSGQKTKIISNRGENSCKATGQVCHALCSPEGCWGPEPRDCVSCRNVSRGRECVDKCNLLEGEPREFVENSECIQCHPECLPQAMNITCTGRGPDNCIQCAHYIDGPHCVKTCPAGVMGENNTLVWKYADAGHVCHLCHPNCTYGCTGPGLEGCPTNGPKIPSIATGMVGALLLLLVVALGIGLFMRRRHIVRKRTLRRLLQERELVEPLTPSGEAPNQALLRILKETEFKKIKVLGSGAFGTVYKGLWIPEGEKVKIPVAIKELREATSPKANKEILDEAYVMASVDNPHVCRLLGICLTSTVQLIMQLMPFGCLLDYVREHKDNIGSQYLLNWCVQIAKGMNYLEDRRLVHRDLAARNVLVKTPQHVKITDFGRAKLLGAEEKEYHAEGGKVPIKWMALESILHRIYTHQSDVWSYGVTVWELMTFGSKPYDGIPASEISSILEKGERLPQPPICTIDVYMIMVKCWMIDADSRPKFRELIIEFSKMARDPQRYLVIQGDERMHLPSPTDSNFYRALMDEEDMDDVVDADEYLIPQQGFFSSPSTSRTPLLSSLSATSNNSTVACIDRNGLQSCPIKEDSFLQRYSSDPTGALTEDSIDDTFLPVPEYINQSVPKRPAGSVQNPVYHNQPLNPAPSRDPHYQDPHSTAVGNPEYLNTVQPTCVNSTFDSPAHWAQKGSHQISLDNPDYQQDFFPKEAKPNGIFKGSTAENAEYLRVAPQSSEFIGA
Protocol: as §1, §2, §3

[16] = target: EGFR G719A T790M (Homo sapiens, UniProt P00533, G719A/T790M); experiment: Ba/F3 cell viability, Cell Titer Glo; conditions: read-out: IC50 Values; Ba/F3 cells expressing EGFR G719A T790M, 72 hours
Protocol: as §1, §3

[17] = target: EGFR L858R T790M L718V (Homo sapiens, UniProt P00533, L718V/L858R/T790M); experiment: Ba/F3 cell viability, Cell Titer Glo; conditions: read-out: IC50 Values; Ba/F3 cells expressing EGFR L858R T790M L718V, 72 hours
Protocol: as §1, §2, §3

Chain of WT EGFR (P00533 25-1210): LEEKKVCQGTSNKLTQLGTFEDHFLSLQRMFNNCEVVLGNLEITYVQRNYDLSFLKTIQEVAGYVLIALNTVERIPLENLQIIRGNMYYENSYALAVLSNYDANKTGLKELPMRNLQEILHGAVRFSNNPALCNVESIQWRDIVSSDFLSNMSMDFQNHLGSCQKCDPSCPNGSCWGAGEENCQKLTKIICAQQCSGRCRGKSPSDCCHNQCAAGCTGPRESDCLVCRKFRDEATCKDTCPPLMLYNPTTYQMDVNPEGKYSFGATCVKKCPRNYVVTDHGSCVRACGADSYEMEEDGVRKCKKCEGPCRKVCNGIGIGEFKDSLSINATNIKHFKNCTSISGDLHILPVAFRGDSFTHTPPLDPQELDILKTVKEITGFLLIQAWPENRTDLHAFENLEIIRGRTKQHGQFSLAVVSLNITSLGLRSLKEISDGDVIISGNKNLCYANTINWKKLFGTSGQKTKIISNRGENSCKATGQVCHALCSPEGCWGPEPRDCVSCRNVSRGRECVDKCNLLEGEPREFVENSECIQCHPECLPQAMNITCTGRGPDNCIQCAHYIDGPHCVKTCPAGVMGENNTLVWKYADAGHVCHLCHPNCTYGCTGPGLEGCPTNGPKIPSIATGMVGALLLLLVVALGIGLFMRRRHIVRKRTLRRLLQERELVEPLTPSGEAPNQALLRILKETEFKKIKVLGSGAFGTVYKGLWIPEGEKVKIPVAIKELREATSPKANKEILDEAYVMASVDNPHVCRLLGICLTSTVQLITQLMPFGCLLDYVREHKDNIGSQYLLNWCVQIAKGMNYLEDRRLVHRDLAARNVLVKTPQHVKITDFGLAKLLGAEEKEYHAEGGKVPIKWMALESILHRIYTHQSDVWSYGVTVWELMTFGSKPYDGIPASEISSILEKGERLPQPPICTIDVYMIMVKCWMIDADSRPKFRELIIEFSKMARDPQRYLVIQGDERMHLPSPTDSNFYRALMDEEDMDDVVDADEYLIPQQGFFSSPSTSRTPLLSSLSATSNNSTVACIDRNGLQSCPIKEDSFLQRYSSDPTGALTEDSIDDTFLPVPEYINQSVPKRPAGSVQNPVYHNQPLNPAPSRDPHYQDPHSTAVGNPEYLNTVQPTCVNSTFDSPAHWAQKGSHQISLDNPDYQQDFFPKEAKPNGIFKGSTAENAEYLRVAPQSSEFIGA

COc1cc(N2CCC(N)CC2)ccc1Nc1ncc(Cl)c(-c2c[nH]c3ccccc23)n1 [AZD3463]
pIC50 [1]: 5.79
pIC50 [2]: 5.90
pIC50 [3]: 5.94
pIC50 [4]: 5.81
pIC50 [5]: 5.95
pIC50 [6]: 5.87
pIC50 [7]: 5.90
pIC50 [8]: 6.16
pIC50 [9]: 5.76
pIC50 [10]: 6.59
pIC50 [11]: 5.84
pIC50 [12]: 5.96
pIC50 [13]: 5.79
pIC50 [14]: 6.11
pIC50 [15]: 5.62
pIC50 [16]: 5.87
pIC50 [17]: 6.18
